How the values were obtained:
[1] = tested on: barnacle cyprid larvae; experiment: Settling experiments with barnacle cyprid larvae (Example 1); assay type: in vivo; conditions: for Dead (%) / Free swimming (%) / Settled (%): counted after one week
Procedure: Barnacle cyprid larvae were incubated in filtered sea water with and without the tested substance.
(§1) Settling experiments were performed in order to evaluate the substances effect on settling rate of cyprid larvae. The barnacle cyprid larvae are reared in the laboratory. Approximately 20 cyprids were incubated in seawater in plastic hydrophobic Petri-dishes. Substances subjected for testing were added in different concentration and compared with controls. After one week the amount of settled, frees-swimming and dead larvae in the Petri dishes were counted.

[2] = tested on: Barnacle; experiment: Cyprid settling rate assay, single compounds and combinations (Example 2); assay type: in vivo; conditions: single substance
Procedure: as §1
(§2) Catemine 3 is combined with an effective anti-algae compound according to the invention, such as dichlofluanid (table 3), SeaNine™ (table 4), Irgarol™ (table 5) and Diuron™ (table 6). All the different brands are tested in combination with Catemine 3 for efficacy against both barnacles and algae with the two compounds together or separately. The assays that are be used are the cyprid settling rate assay and the algae germination test.

[3] = tested on: Ulva; experiment: Algae spore germination test, Ulva; assay type: in vivo; conditions: single substance
Procedure: The efficacy of algicides is usually tested by a spore germination test. Algae are collected from the field and grown in the laboratory. […] The water with test compound is then removed and culture medium is added. The spores are left to germinate under fluorescent lamps (50 μMm-2s-1 (PAR)), 16 h light, 8 h darkness, for 7 days in a culture medium, which was changed once a day. […]

[4] = tested on: Enteromorpha; experiment: Algae spore germination test, Enteromorpha; assay type: in vivo; conditions: single substance
Procedure: The efficacy of algicides is usually tested by a spore germination test. Algae are collected from the field and grown in the laboratory. After induced sporulation the spores are added to test vials, with the test compound dissolved in pasteurized deep sea water, where they are allowed to settle in darkness for a couple of hours (2-3 h) to give an even distribution of settled spores in the vials. The water with test compound is then removed and culture medium is added. The spores are left to germinate under fluorescent lamps (50 μMm-2s-1 (PAR)), 16 h light, 8 h darkness, for 7 days in a culture medium, which was changed once a day.
as §2

[5] = tested on: algae; conditions: target protein lacking in algae; reference (6); cited from earlier work

SMILES | Dead (%) ([1]; 100 pM in seawater) | Free swimming (%) ([1]; 100 pM in seawater) | Settled (%) ([1]; 100 pM in seawater) | Dead (%) ([1]; 1 nM in seawater) | Free swimming (%) ([1]; 1 nM in seawater) | Settled (%) ([1]; 1 nM in seawater) | Dead (%) ([1]; 10 nM in seawater) | Free swimming (%) ([1]; 10 nM in seawater) | Settled (%) ([1]; 10 nM in seawater) | Dead (%) ([1]; 100 nM in seawater) | Free swimming (%) ([1]; 100 nM in seawater) | Settled (%) ([1]; 100 nM in seawater) | Dead (%) ([1]; 1 μM in seawater) | Free swimming (%) ([1]; 1 μM in seawater) | Settled (%) ([1]; 1 μM in seawater) | Barnacle biofouling (% settlement) ([2]; 0.1 nM) | Barnacle biofouling (% settlement) ([2]; 1 nM) | Barnacle biofouling (% settlement) ([2]; 10 nM) | Barnacle biofouling (% settlement) ([2]; 100 nM) | Ulva biofouling (% survival) ([3]; 0.1 nM) | also measured
NC1=N[C@]2(CCc3cccc(Cl)c3C2)CO1 [Catemine 3, (S)-spiro[(1-oxa-2-amino-3-azacyclopent-2-ene)-4,29-(89-chloro-19,29,39,49 tetrahydronaphthalene)]] | 5% | 93% | 2% | 3% | 97% | 0% | 0% | 95% | 3% | 0% | 100% | 0% | 0% | 100% | 0% | 10% | 0% | 0% | 0% | 100% | Dead (%) ([1]; 10 pM in seawater): 0%; Free swimming (%) ([1]; 10 pM in seawater): 96%; Settled (%) ([1]; 10 pM in seawater): 4%; Dead (%) ([1]; 10 μM in seawater): 2%; Free swimming (%) ([1]; 10 μM in seawater): 98%; Settled (%) ([1]; 10 μM in seawater): 0%; Dead (%) ([1]; 100 μM in seawater): 100%; Free swimming (%) ([1]; 100 μM in seawater): 0%; Settled (%) ([1]; 100 μM in seawater): 0%; Decrease in concentration needed for settlement inhibition compared to Catemine 1 ([1]; compared to Catemine 1): 100-fold decrease in concentration needed for settlement inhibition.; Potency comparison of antisettling activity ([1]; comparison of Tables 1 and 2): more potent than Catemine 1; Ulva biofouling (% survival) ([3]; 1 nM): 100%; Ulva biofouling (% survival) ([3]; 10 nM): 100%; Ulva biofouling (% survival) ([3]; 100 nM): 100%; Enteromorpha biofouling (% survival) ([4]; 0.1 nM): 100%; Enteromorpha biofouling (% survival) ([4]; 1 nM): 100%; Enteromorpha biofouling (% survival) ([4]; 10 nM): 100%; Enteromorpha biofouling (% survival) ([4]; 100 nM): 100%
CCCCCCCCn1sc(Cl)c(Cl)c1=O [SeaNine, 4,5-dichloro-2-n-octyl-3(2H)-isothiazolone] |  |  |  |  |  |  |  |  |  |  |  |  |  |  |  | 100% | 50% | 10% | 0% | 100% | Ulva biofouling (% survival) ([3]; 1 nM): 50%; Ulva biofouling (% survival) ([3]; 10 nM): 10%; Ulva biofouling (% survival) ([3]; 100 nM): 0%
CN(C)S(=O)(=O)N(SC(F)(Cl)Cl)c1ccccc1 [Dichlofluanid, N′-dimethyl-N-phenylsulphamide] |  |  |  |  |  |  |  |  |  |  |  |  |  |  |  |  |  |  |  |  | Barnacle biofouling (% settlement) ([2]; 0.1 μg/ml): 100%; Barnacle biofouling (% settlement) ([2]; 1 μg/ml): 50%; Barnacle biofouling (% settlement) ([2]; 10 μg/ml): 25%; Barnacle biofouling (% settlement) ([2]; 100 μg/ml): 0%; Ulva biofouling (% survival) ([3]; 0.1 μg/ml): 100%; Ulva biofouling (% survival) ([3]; 1 μg/ml): 90%; Ulva biofouling (% survival) ([3]; 10 μg/ml): 10%; Ulva biofouling (% survival) ([3]; 100 μg/ml): 0%
Cc1cccc(C(C)c2c[nH]cn2)c1C (racemic) [Catemine 1, (+/−)-4-[1-(2,3-dimethylphenyl)ethyl]-1H-imidazole] | 0% | 48% | 52% | 0% | 98% | 2% | 0% | 100% | 0% | 0% | 100% | 0% | 0% | 100% | 0% |  |  |  |  |  | Effect on algal growth [5]: no effect of algal growth
CN(C)C(=O)Nc1ccc(Cl)c(Cl)c1 [Diuron, 3-(3,4-dichlorophenyl)1,1-dimethylurea] |  |  |  |  |  |  |  |  |  |  |  |  |  |  |  |  |  |  |  |  | Barnacle biofouling (% settlement) ([2]; 0.1 μM): 100%; Barnacle biofouling (% settlement) ([2]; 1 μM): 100%; Barnacle biofouling (% settlement) ([2]; 10 μM): 100%; Barnacle biofouling (% settlement) ([2]; 100 μM): 100%; Ulva biofouling (% survival) ([3]; 0.1 μM): 100%; Ulva biofouling (% survival) ([3]; 1 μM): 90%; Ulva biofouling (% survival) ([3]; 10 μM): 50%; Ulva biofouling (% survival) ([3]; 100 μM): 0%
CSc1nc(NC2CC2)nc(NC(C)(C)C)n1 [Irgarol, 2-methylthio-4-tert-butylamino-6-cyclopropylamino-s-triazine] |  |  |  |  |  |  |  |  |  |  |  |  |  |  |  | 100% | 100% | 100% | 100% |  | Enteromorpha biofouling (% survival) ([4]; 0.1 nM): 100%; Enteromorpha biofouling (% survival) ([4]; 1 nM): 100%; Enteromorpha biofouling (% survival) ([4]; 10 nM): 50%; Enteromorpha biofouling (% survival) ([4]; 100 nM): 0%
